The record followed here is US20230247992A1, “ARTHROPOD CONTROL COMPOSITION” (Firmenich SA, priority 2020, published 2023).

Like-named read-outs stand apart in the source and are kept apart here. Where only a bound is given, the exact number is not on record here.

Holding throughout (assay type): in vivo
In assay [1] the test system is Aedes aegypti. Nature of the assay: in vitro Warm Body assay, substance introduced in the cage air by forced evaporation (spatial repellence). Here is the method:
(§1) The controlling effect, repellence & spatial repellence, according to the present invention is determined by testing the Warm Body assay against the yellow fever mosquito, Aedes aegypti Rockefeller strain. […] Observations of controlling efficacy were made on host-seeking females of uniform age, 5 to 10 days old selected as mentioned in the publication mentioned hereinabove. Tested hungry females had access to 10% sugar solution but were not blood-fed. Further information is provided in the accompanying examples.
(§2) The published protocol has been adapted in not manually counting the landing mosquitoes but automatically using an automatic counting software, the switch from Anopheles gambiae to A. aegypti led to a decrease of mosquitoes’ number placed in the tested cage due to the size difference (i.e. 30 mosquitoes instead of 50) and to an increase of lighting as A. aegypti is a diurnal mosquitoes (i.e. 150 lux instead of 4 lux). Further information is provided in the accompanying examples.,
(§3) The controlling effect of the compositions according to the present invention was assessed using an adapted Warm Body assay as defined in Kröber T, Kessler S, Frei J, Bourquin M, Guerin PM. 2010. An in vitro assay for testing mosquito controlling compounds employing a warm body and carbon dioxide as a behavioral activator. J Am Mosq Control Assoc. 26:381-386. In this in-vitro assay the number of mosquito landing on a warm body, simulating an attractive host treated with the tested stimuli, was measured in order to assess the repellence effect.
(§4) The published protocol has been adapted in not manually counting the landing mosquitoes but automatically using an automatic counting software, the switch from Anopheles gambiae to Aedes aegypti led to a decrease of mosquitoes’ number placed in the tested cage due to the size difference (i.e. 30 mosquitoes instead of 50) and to an increase of lighting as A. aegypti is a diurnal mosquitoes (i.e. 150 lux instead of 4 lux).
(§5) In addition, since the inventors were interested by assessing spatial repellence added or not to a deterrent effect, the substance was applied using two different technics. Whether, as in Kröber et al. (2010), both deterrent and repellent effect were investigated (i.e. similar effect than most body care applications such as lotion) and the substances was applied on a sandblasted glass Petri dish placed on top of the warm body. Whether only the spatial repellence was investigated (i.e. similar effect than most home care applications such as liquid electric dispenser) and the substance was introduced in the cage space thanks to a forced evaporation system as described in Chappuis C J-F, Niclass Y, Vuilleumier C, Starkenmann C. 2015. Quantitative Headspace Analysis of Selected Odorants from Latrines in Africa and India. Environ. Sci. Technol. 49:6134-6140.
(§6) As stated in Kröber et al. (2010), selected 10-12 days old hungry females, that had ad libitum access to 10% sugar solution but were not blood-fed, were selected for the assay.
The forced evaporation system allows to fill the volume of the cage with stimuli tested, (2-methyl-4-oxo-3-prop-2-ynylcyclopent-2-en-1-yl) 2,2-dimethyl-3-(2-methylprop-1-enyl)cyclopropane-1-carboxylate (prallethrin) and N,N-diethyl-3-methylbenzamide (DEET) being used as benchmarks. In order to limit potential dead volumes in the cage, five flushes of the cage were made before starting the 2 minutes test during which the number of mosquito landings was counted.

Assay [2] has as its system Ixodes ricinus. Put plainly: whole plant or invertebrate. The conditions noted are these: for pest or weed control at 1 µg/cm2, 1 µg/cm2 / pest or weed control at 5 µg/cm2, 5 µg/cm2 / pest or weed control at 25 µg/cm2, 25 µg/cm2 / pest or weed control at 0.04 µg/cm2, 0.04 µg/cm2: Ixodes ricinus, read-out: mean percentage of ticks affected; for tick response compared with the benchmark IR3535: concentrations tested; for pest or weed control at 0.04 µg/cm2, 0.04 µg/cm2: 0.04 µg/cm^2, diluted in ethanol.

Assay [3] has as its system Aedes aegypti. Nature of the assay: in vitro Warm Body assay, substance applied on glass Petri dish on top of the warm body (deterrence and repellence). How it is done:
as §1, §2, §3, §4, §5, §6
On the sandblasted glass Petri dish covering the warm body (28.3 cm^2), 100 µL of the substances diluted at different concentrations in ethanol was applied. The number of mosquito landing on the warm body was counted for each stimuli, N,N-diethyl-3-methylbenzamide (DEET) and ethyl 3-[acetyl(butyl)amino]propanoate (IR3535) being used as benchmarks and pure ethanol as control.

Where [4] appears, read: 1 µg/cm^2, diluted in ethanol, ethanol control 1.0±1.2%.
Where [5] appears, read: 5 µg/cm^2, diluted in ethanol, ethanol control 1.0±1.2%.
[6] abbreviates: 25 µg/cm^2, diluted in ethanol, ethanol control 1.0±1.2%.
Setting [7] is: 0.04% in ethanol, ethanol control 59.3±6.9 landings.
The mark [8] stands for this setting: 1% in ethanol, ethanol control 59.3±6.9 landings.
Where [9] appears, read: […] in ethanol, ethanol control 59.3±6.9 landings.
Setting [10] is: 0.0017 µg/L air, without substance 56.0±3.6.
[11] abbreviates: 0.017 µg/L air, without substance 56.0±3.6.
Setting [12] is: 0.17 µg/L air, without substance 56.0±3.6.
Setting [13] is: 1.7 µg/L air, without substance 56.0±3.6.
The mark [14] stands for this setting: 17 µg/L air, without substance 56.0±3.6.
[15] abbreviates: 0.04% in ethanol, ethanol control 67.1±9.1 landings.
Where [16] appears, read: 1% in ethanol, ethanol control 67.1±9.1 landings.
Where [17] appears, read: […] in ethanol, ethanol control 67.1±9.1 landings.
Setting [18] is: 1 µg/cm^2, diluted in ethanol, ethanol control 0.6±0.5%.
[19] abbreviates: 25 µg/cm^2, diluted in ethanol, ethanol control 0.6±0.5%.
[20] abbreviates: 0.04% in ethanol, ethanol control 67.0±8.8 landings.
Setting [21] is: 1% in ethanol, ethanol control 67.0±8.8 landings.
Setting [22] is: […] in ethanol, ethanol control 67.0±8.8 landings.

As to `CCCCCC1CCC(=O)O1` (stereo not drawn) [5-pentyloxolan-2-one], the “number of mosquitoes landing within 2 minutes on the warm body, air in the cage saturated with stimulus” value (from here on “number … with stimulus”) is recorded as 14.7 in assay [1] (0.0017 µg/L air, without substance 54.7±3.2); 23.0 in assay [1] (0.017 µg/L air, without substance 54.7±3.2); 15.3 in assay [1] (0.17 µg/L air, without substance 54.7±3.2); 7.7 in assay [1] (1.7 µg/L air, without substance 54.7±3.2); 2.0 in assay [1] (17 µg/L air, without substance 54.7±3.2). For the same compound, the pest or weed control at 1 µg/cm2, 1 µg/cm2 in assay [2] (setting [4]) was determined as 31%. The pest or weed control at 5 µg/cm2, 5 µg/cm2 in assay [2] (setting [5]) stood at 83%. The pest or weed control at 25 µg/cm2, 25 µg/cm2 in assay [2] (setting [6]) came out at 100%. In addition, the “tick response compared with the benchmark IR3535” value in assay [2] is “response similar to the benchmark IR3535”. For the same compound, the “number of mosquitoes landing within 2 minutes on the warm body” value in assay [3] (setting [7]) was 16.0; in assay [3] (setting [8]), 1.0; in assay [3] (setting [9]), 76.0.

Consider `CCC/C=C1\OC(=O)c2ccccc21` [(3Z)-3-butylidene-2-benzofuran-1-one], for which the “number … with stimulus” value in assay [1] (setting [10]) is on record as 59.0; in assay [1] (setting [11]), 31.5; in assay [1] (setting [12]) it was 17.0; in assay [1] (setting [13]) it was 11.0; in assay [1] (setting [14]) it was 37.0. Besides, the repulsion in assay [1] (doses of 1.7 and/or 17 µg/L in air) is recorded as < 90%. For the same compound, the pest or weed control at 1 µg/cm2, 1 µg/cm2 in assay [2] amounted to 77%. Moreover, the pest or weed control at 5 µg/cm2, 5 µg/cm2 in assay [2] is 100%. Also, the pest or weed control at 25 µg/cm2, 25 µg/cm2 in assay [2] was determined as 100%. Also, in assay [2], the “tick response compared with the benchmark IR3535” value is reported as “greater tick repellency”. Besides, in assay [2] (intermediate dose tested (0.2%)), the ticks affected entry is reported as “all tested ticks were affected”. In assay [2] (lowest dose tested (0.04%)), the “fraction of the ticks affected” value was “more than ¾”. For the same compound, the “number of mosquitoes landing within 2 minutes on the warm body” value in assay [3] (setting [15]) came out at 9.0; in assay [3] (setting [16]), 1.0; in assay [3] (setting [17]), 54.0.

Consider `C/C=C/C(=O)C1C(C)=CCCC1(C)C` (stereo not drawn) [(E)-1-(2,6,6-trimethylcyclohex-2-en-1-yl)but-2-en-1-one], for which the “number … with stimulus” value in assay [1] (setting [10]) was determined as 6.0; in assay [1] (setting [11]), 11.0; in assay [1] (setting [12]), 4.0; in assay [1] (setting [13]), 4.0; in assay [1] (setting [14]) it was 1.0. In addition, the repulsion entry in assay [1] (at all five tested concentrations) was “more than 80%”. In assay [1] (dose of 0.17 µg/L of air), the “landings in 2 minutes” value is listed as “less than five”. Also, in assay [2], the pest or weed control at 1 µg/cm2, 1 µg/cm2 worked out at 13%. For the same compound, the pest or weed control at 5 µg/cm2, 5 µg/cm2 in assay [2] was 6%. The pest or weed control at 25 µg/cm2, 25 µg/cm2 in assay [2] was determined as 83%. Also, the “number of mosquitoes landing within 2 minutes on the warm body” value in assay [3] (setting [15]) is given as 34.0; in assay [3] (setting [16]), 9.0; in assay [3] (setting [17]), 70.0.

`CCCCN(CCC(=O)OCC)C(C)=O` [ethyl 3-[acetyl(butyl)amino]propanoate, reference compound]: the “mean percentage of ticks affected” value in assay [2] (setting [18]) is recorded as 33%; in assay [2] (1 µg/cm^2, diluted in ethanol, ethanol control 4.3±2.1%) it was 33%; in assay [2] (5 µg/cm^2, diluted in ethanol, ethanol control 0.6±0.5%), 67%; in assay [2] (5 µg/cm^2, diluted in ethanol, ethanol control 4.3±2.1%) it was 67%; in assay [2] (setting [19]) it was 91%; in assay [2] (25 µg/cm^2, diluted in ethanol, ethanol control 4.3±2.1%) it was 91%. The pest or weed control at 0.04 µg/cm2, 0.04 µg/cm2 in assay [2] (ethanol control 0.6±0.5%) came to 13%. Moreover, the pest or weed control at 1 µg/cm2, 1 µg/cm2 in assay [2] (setting [4]) was 33%. The pest or weed control at 5 µg/cm2, 5 µg/cm2 in assay [2] (setting [5]) stood at 67%. For the same compound, the pest or weed control at 25 µg/cm2, 25 µg/cm2 in assay [2] (setting [6]) is 91%. Also, the “number of mosquitoes landing within 2 minutes on the warm body” value in assay [3] (setting [7]) is given as 20.7; in assay [3] (setting [20]), 20.7; in assay [3] (setting [15]), 20.7; in assay [3] (setting [8]), 7.7; in assay [3] (setting [21]), 7.7; in assay [3] (setting [16]) it was 7.7. Further, the “number of mosquitoes landing within 2 minutes on the warm body” value in assay [3] (setting [9]), in assay [3] (setting [22]) and in assay [3] (setting [17]) was 70.0 throughout.

`COc1ccc(COC(C)=O)cc1` [(4-methoxyphenyl)methyl acetate]: the “number … with stimulus” value in assay [1] (0.0017 µg/L air, without substance 54.1±4.9) amounted to 18.0; in assay [1] (0.017 µg/L air, without substance 54.1±4.9) it was 26.5; in assay [1] (0.17 µg/L air, without substance 54.1±4.9), 34.5; in assay [1] (1.7 µg/L air, without substance 54.1±4.9) it was 28.0. Also, the “number of mosquitoes landing within 2 minutes on the warm body” value came out at 27.0 in assay [3] (setting [20]), 9.0 in assay [3] (setting [21]) and 59.0 in assay [3] (setting [22]).

On to `O=C1CCC2CCCCC2O1` (stereo not drawn) [3,4,4a,5,6,7,8,8a-octahydrochromen-2-one], for which, in assay [2] (ethanol control 0.6±0.5%), the pest or weed control at 0.04 µg/cm2, 0.04 µg/cm2 amounted to 33%. Besides, the pest or weed control at 1 µg/cm2, 1 µg/cm2 in assay [2] (setting [18]) was found to be 17%. The pest or weed control at 25 µg/cm2, 25 µg/cm2 in assay [2] (setting [19]) stood at 92%. In addition, the results for the “number of mosquitoes landing within 2 minutes on the warm body” value in assay [3] (setting [20]), in assay [3] (setting [21]) and in assay [3] (setting [22]) were 7.0, 0.0 and 45.0, respectively.
